For one data set, the target named is T1, thrombin (Homo sapiens, UniProt P00734).
T1 construct: 200 μL (2 nmol) of the thrombin solution prepared at a concentration of 10 pmol/pt was prepared; purchased Research Laboratories
The conditions noted are these: read-out: Kd^app values reported in the art; cited from earlier work.

In a further data set the test system is SK-BR-3 cells. Briefly: Cell viability by MTT reduction assay, SK-BR-3.
The test system of another data set is HER2 epitope peptide. The conditions noted are these: read-out: Kd for HER2 epitope peptide (reported); cited from earlier work.
The target of data set [1] is extracellular domain of a HER2 protein (Homo sapiens, UniProt P04626). Particulars: cited from earlier work.

A word on the IC50: it is the concentration at which inhibition is half-maximal.

{NH2C6} = aminohexyl linker, H2N-(CH2)6-

Protocol for SK-BR-3 cells: In order to maintain the cells in the log phase, a fresh medium was resupplied two or three times a week.
The cell viability was measured using the standard 3-(4,5-dimethylthiazol-2-yl)-2,5-diphenyltetrazolium bromide (MTT) reduction assay. Simply, cells that grow exponentially were inoculated at a density of 5×10^3 per well in a 96-well with flat bottom plate (200 μL/well) and cultured at 37° C. for 24 hours.
10 μL of MTT solution was added to each well, and the cells were further cultured at 37° C. for 4 hours. The amount of formazan product was measured at 570 nm. The cell survival fraction was calculated as a percentage of the untreated control group.

Turning to “15-mer DNA aptamer: 5′-H2N—(CH2)6-GGT TGG TGT GGT TGG-3′, specifically binds to thrombin”, the Kd with thrombin is 20.2 nM.

“29-mer DNA aptamer: 5′-H2N—(CH2)6-AGTCCGTGGTAGGGCAGGTTGGGGTGACT-3′, specifically binds to thrombin”: the Kd with thrombin was 3.5 nM.

Take `COc1cccc2c1C(=O)c1c(O)c3c(c(O)c1C2=O)C[C@@](O)(C(=O)CO)C[C@@H]3O[C@H]1C[C@H](N)[C@H](O)[C@H](C)O1` [Dox, doxorubicin]: in the data set on SK-BR-3 cells (Homo sapiens, SK-BR-3, 24 h, read-out: IC50 for SK-BR-3), the half-inhibitory concentration (IC50) amounted to 43.9 nM.

B1: anti-HER2 aptamer: anti-human epidermal growth factor 2 (HER2) aptamer, SEQ ID NO: 3, purchased from Bioneers (nucleic acid)
DNA: AACCGCCCAAATCCCTAAGAGTCTGCACTTGTCATTTTGTATATGTATTTGGTTTTTGGCTCTCACAGACACACTACACACGCACA
modifications: DNA, 5' {NH2C6}, backbone not given here; further chemistry not fully specified
For B1, the Kd is 18.9 nM in the data set on HER2 epitope peptide and 315 nM in data set [1]. For the same molecule, the “cytotoxicity against SK-BR-3 cells” value in the data set with SK-BR-3 cells (0 nM to 100 nM, FIG. 10) is reported as “does not have cytotoxicity”.

The record behind these values is patent publication US10605810B2, “Pincers comprising antibody and aptamer conjugated via a linker which binds to the same target material and use thereof” (University-Industry Cooperation Group Of Kyung Hee …, priority 2013, dated 2020).
